These results are taken from paper PMC6264549, “Synthesis and Biological Evaluation of 3-Substituted-indolin-2-one Derivatives Containing Chloropyrrole Moieties” (Molecules, 2011).

In data set [1] the test system is non-small cell lung cancer (A549). Kind of data set: MTT cell growth inhibition assay, A549. Type of data set: cell-based. The settings on record: Homo sapiens, 48 h, A549 cells, two days, read-out: IC50 ± SD A549. Here is the method:
(§1) The antitumor activities of 14a-r were evaluated in vitro on four tumor cell lines, including non-small cell lung cancer (A549), oral epithelial (KB), melanoma (K111) and large cell lung cancer cell lines (NCI-H460) by the MTT assay, and the results are summarized in Table 1.
(§2) Non-small cell lung cancer (A549), oral epithelial (KB), large cell lung cancer (NCI-H460) and melanoma cell lines (K111) were cultured in Dulbecco’s modified Eagle medium (GIBCO) containing 10% (v/v) inactivated newborn calf serum (Boren Bio-Pharmaceutical Co., Ltd.: Guangzhou, China), […] L-glutamine (SANGON), […] penicillin, 100 µg/mL streptomycin. Cells were grown in a 5% CO2 incubator at 37 °C.
(§3) The antitumor activities were determined by the MTT assay. Cells (2 × 10^3 cells/well) were seeded in 96-well plates. After incubation overnight, each compound, which was dissolved in dimethylsulfoxide (DMSO) and diluted with phosphate buffer solution (PBS), was added to each well and the cells were cultured for another two days at 37 °C. 20 μL (5 mg/mL) MTT solution was added to per well and the culture continued for another 3–4 h. The medium was removed and 100 μL DMSO was added to dissolve formazan crystals. Absorbance was measured at 492 nm using an ELISA reader (Thermo). The antitumor activities were expressed as IC50.

For a further data set, the system named is oral epithelial (KB). The experiment in a line: MTT cell growth inhibition assay, KB. The settings on record: Homo sapiens, 48 h, KB cells, two days. Type of data set: cell-based. On the procedure:
as §1, §2, §3

Another data set relates to melanoma (K111). The experiment in a line: MTT cell growth inhibition assay, K111. The class given is cell-based. The settings on record: 48 h, K111 cells, two days, read-out: IC50 ± SD K111. On the procedure:
as §1, §2, §3

Data set [2] deals with large cell lung cancer cell lines (NCI-H460). Kind of data set: MTT cell growth inhibition assay, NCI-H460. The class given is cell-based. The settings on record: Homo sapiens, 48 h, NCI-H460 cells, two days, read-out: IC50 ± SD NCI-H460. On the procedure: as §1, §2, §3
A further data set has as its target VEGFR2 tyrosine kinase (Homo sapiens, UniProt P35968). Kind of data set: VEGFR2 inhibition assay (ELISA). The settings on record: 5.0 µM ATP, Poly (Glu, Tyr)4:1 substrate, read-out: IC50 ± SD VEGFR2. Type of data set: biochemical. On the procedure: Seven compounds in the 14a–r series with low IC50 values on the tumor cell lines were evaluated for their inhibition of VEGFR2 using an enzyme-linked immunosorbent assay (ELISA), and the data are summarized in Table 2.
The VEGFR2 inhibition assay was performed by enzyme-linked immunosorbent assay (ELISA) in 96-well plates pre-coated with 2.5 µg/well Poly (Glu, Tyr)4:1 as a substrate. Each well was treated with 90 µL of 5.0 µM ATP (Amresco) solution and 10 µL of one of the seven compounds at varying concentrations, which were diluted in reaction buffer (50 mM HEPES pH 7.4, 20 mM MgCl2, 0.1 mM Na3VO4, 1 mM DTT). […] The reaction was initiated by adding 1 µL/well of VEGFR2 tyrosine kinase. After incubation for 1 h at 37 °C, the plates were washed three times with phosphate buffered saline containing 0.1% Tween-20 (T-PBS). Next, anti-phosphotyrosine (PY99; 1:1,000 dilution, 100 μL/well) antibody was added. After 1 h incubation at room temperature, the plates were washed three times, and goat anti-mouse IgG horseradish peroxidase (100 μL/well of 1:2,000 dilution) diluted in T-PBS was added. The plates were reincubated at room temperature for 1 h, and washed as before. Finally, color development solution (0.03% H2O2 and 2 mg/mL o-phenylenediamine in 0.1 M citrate buffer, pH 5.5, 100 µL/well) was added and the plates were incubated at room temperature until color emerged. The reaction was terminated by the addition of 2 M H2SO4 (50 µL/well), and A492 was measured using a tunable wavelength microplate reader (Molecular Devices SPECTRAMAX190). The inhibition rate was calculated using the equation: [1 − (A492/A492 control)] × 100%.

Sequence of VEGFR2 tyrosine kinase (P35968 20-1356): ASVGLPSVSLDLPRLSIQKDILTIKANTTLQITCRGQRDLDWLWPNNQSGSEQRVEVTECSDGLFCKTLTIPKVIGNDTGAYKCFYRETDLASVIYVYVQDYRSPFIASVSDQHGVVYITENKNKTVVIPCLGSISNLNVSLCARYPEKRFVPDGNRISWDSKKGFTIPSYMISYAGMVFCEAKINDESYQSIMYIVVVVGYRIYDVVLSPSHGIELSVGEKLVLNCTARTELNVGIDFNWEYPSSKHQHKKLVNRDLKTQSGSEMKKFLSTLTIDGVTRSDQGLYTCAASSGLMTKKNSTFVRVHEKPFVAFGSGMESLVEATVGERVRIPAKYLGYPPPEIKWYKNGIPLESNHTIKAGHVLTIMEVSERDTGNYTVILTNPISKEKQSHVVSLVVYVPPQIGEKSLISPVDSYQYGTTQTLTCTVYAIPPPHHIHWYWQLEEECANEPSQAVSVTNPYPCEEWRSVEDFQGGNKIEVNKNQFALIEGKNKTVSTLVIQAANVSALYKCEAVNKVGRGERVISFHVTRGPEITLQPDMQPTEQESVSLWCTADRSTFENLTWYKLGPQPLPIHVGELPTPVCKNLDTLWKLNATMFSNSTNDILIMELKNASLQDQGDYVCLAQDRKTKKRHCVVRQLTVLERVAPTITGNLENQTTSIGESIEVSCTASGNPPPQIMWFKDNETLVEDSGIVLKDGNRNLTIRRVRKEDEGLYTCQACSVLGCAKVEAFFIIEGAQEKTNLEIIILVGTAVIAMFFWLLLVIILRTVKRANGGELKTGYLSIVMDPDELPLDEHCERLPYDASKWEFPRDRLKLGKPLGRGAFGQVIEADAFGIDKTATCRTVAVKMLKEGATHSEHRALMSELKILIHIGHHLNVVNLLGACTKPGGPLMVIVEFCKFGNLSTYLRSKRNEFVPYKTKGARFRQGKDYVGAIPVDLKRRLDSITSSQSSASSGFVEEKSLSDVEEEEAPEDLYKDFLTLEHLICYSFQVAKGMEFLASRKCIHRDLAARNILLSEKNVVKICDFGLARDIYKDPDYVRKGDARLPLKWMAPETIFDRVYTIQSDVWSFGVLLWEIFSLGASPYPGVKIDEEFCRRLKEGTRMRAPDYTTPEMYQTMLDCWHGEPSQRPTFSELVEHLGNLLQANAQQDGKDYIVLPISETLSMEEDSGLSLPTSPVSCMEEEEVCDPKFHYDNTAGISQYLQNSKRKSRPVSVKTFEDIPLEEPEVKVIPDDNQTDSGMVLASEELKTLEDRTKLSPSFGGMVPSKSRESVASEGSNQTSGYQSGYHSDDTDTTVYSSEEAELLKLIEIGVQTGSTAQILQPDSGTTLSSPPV

The IC50 is the concentration that gives 50% inhibition. By melting point is commonly meant the temperature, or range, at which the solid turns liquid. The molecule `CCN(CC)CCNC(=O)c1cc(/C=C2\C(=O)Nc3ccc(F)cc32)[nH]c1Cl` [Compound 14n, (Z)-2-Chloro-N-(2-(diethylamino)ethyl)-5-((5-fluoro-2-oxoindolin-3-ylidene)methyl)-1H-pyrrole-3-carboxamide] had a melting point of 233.5 to 234.7 °C. Further, the IC50 in data set [1] amounted to 3.37 ± 0.27 µM. Moreover, the IC50 in the data set with oral epithelial (KB) turned out to be 4.23 ± 0.65 µM. The IC50 in the data set with melanoma (K111) is over 100 µM. Besides, the IC50 in data set [2] is over 100 µM.

In turn, `CCN(CC)CCNC(=O)c1c(C)[nH]c(/C=C2\C(=O)Nc3ccc(C)cc32)c1Cl` [Compound 14l, (Z)-4-Chloro-N-(2-(diethylamino)ethyl)-2-methyl-5-((5-methyl-2-oxoindolin-3-ylidene)methyl)-1H-pyrrole-3-carboxamide] came in with a melting point of 238.2 to 240 °C. Also, in data set [1], the IC50 was over 100 µM. Besides, half-maximal inhibition with oral epithelial (KB) (IC50) required 64.4 ± 7.51 µM. In addition, the IC50 in the data set with melanoma (K111) is over 100 µM. The IC50 in data set [2] was over 100 µM.

`Cc1[nH]c(/C=C2\C(=O)Nc3ccc(F)cc32)c(Cl)c1C(=O)NC1CNC1` [Compound 14c, (Z)-N-(azetidin-3-yl)-4-chloro-5-((5-fluoro-2-oxoindolin-3-ylidene)methyl)-2-methyl-1H-pyrrole-3-carboxamide] showed a melting point of 230.5 to 232 °C. The IC50 in data set [1] was found to be 2.43 ± 0.26 µM. Besides, in the data set on oral epithelial (KB), the IC50 worked out at 1.35 ± 0.12 µM. For the same molecule, the IC50 in the data set with melanoma (K111) was 3.41 ± 0.52 µM. Also, the IC50 in data set [2] was 1.41 ± 0.17 µM. Also, the half-inhibitory concentration (IC50) at VEGFR2 tyrosine kinase was 0.0068 ± 0.0018 µM.

As to `CCN(CC)CCNC(=O)c1c(Cl)[nH]c(/C=C2\C(=O)Nc3ccc(F)cc32)c1Cl` [Compound 14m, (Z)-2,4-Dichloro-N-(2-(diethylamino)ethyl)-5-((5-fluoro-2-oxoindolin-3-ylidene)methyl)-1H-pyrrole-3-carboxamide], the melting point was in the range of 269.1 to 270.3 °C. In addition, the IC50 in data set [1] was over 100 µM. This molecule also returned an IC50 in the data set on oral epithelial (KB) of over 100 µM. Besides, the IC50 in the data set with melanoma (K111) was over 100 µM. Moreover, in data set [2], the IC50 was over 100 µM.

`Cc1[nH]c(/C=C2\C(=O)Nc3ccc(F)cc32)c(Cl)c1C(=O)NCCCN(C)C` [Compound 14e, (Z)-4-Chloro-N-(3-(dimethylamino)propyl)-5-((5-fluoro-2-oxoindolin-3-ylidene)methyl)-2-methyl-1H-pyrrole-3-carboxamide] displayed a melting point of 235.1 to 237.3 °C. Besides, the IC50 in data set [1] was found to be 2.33 ± 0.31 µM. The molecule further returned an IC50 in the data set on oral epithelial (KB) of 2.88 ± 0.33 µM. In addition, the IC50 in the data set on melanoma (K111) is over 100 µM. The IC50 in data set [2] is over 100 µM.

For `Cc1[nH]c(/C=C2\C(=O)Nc3ccc(F)cc32)c(Cl)c1C(=O)NCCN(C)C` [Compound 14f, (Z)-4-Chloro-N-(2-(dimethylamino)ethyl)-5-((5-fluoro-2-oxoindolin-3-ylidene)methyl)-2-methyl-1H-pyrrole-3-carboxamide], the melting point was 271.8 to 274.2 °C. In addition, the IC50 in data set [1] was determined as 1.69 ± 0.17 µM. This molecule also had a half-maximal inhibitory concentration (IC50) with oral epithelial (KB) of 1.56 ± 0.08 µM. In the data set with melanoma (K111), the IC50 was found to be 1.35 ± 0.28 µM. In addition, the IC50 in data set [2] amounted to 1.67 ± 0.18 µM. At VEGFR2 tyrosine kinase, the IC50 amounted to 0.0062 ± 0.0008 µM.

Turning to `Cc1[nH]c(/C=C2\C(=O)Nc3ccc(F)cc32)c(Cl)c1C(=O)NCCN1CCOCC1` [Compound 14a, (Z)-4-Chloro-5-((5-fluoro-2-oxoindolin-3-ylidene)methyl)-2-methyl-N-(2-morpholinoethyl)-1H-pyrrole-3-carboxamide], the melting point is 268.5 to 269.7 °C. Besides, the IC50 in data set [1] was determined as 1.47 ± 0.13 µM. This molecule returned an IC50 in the data set on oral epithelial (KB) of 52.9 ± 7.93 µM. Further, in the data set with melanoma (K111), the IC50 was over 100 µM. The IC50 in data set [2] is over 100 µM.

As to `CCN(CC)CCNC(=O)c1c(Cl)[nH]c(/C=C2\C(=O)Nc3ccc(Br)cc32)c1C` [Compound 14j, (Z)-5-((5-bromo-2-oxoindolin-3-ylidene)methyl)-2-chloro-N-(2-(diethylamino)ethyl)-4-methyl-1H-pyrrole-3-carboxamide], the melting point fell in the range of 248.1 to 248.5 °C. For the same molecule, in data set [1], the IC50 was over 100 µM. The same molecule registered an IC50 in the data set with oral epithelial (KB) of 34.2 ± 2.96 µM. In the data set with melanoma (K111), the IC50 was over 100 µM. Also, the IC50 in data set [2] was over 100 µM.

In the case of `CCN(CC)CCNC(=O)c1c(C)[nH]c(/C=C2\C(=O)Nc3ccc(Cl)cc32)c1Cl` [Compound 14i, (Z)-4-Chloro-5-((5-chloro-2-oxoindolin-3-ylidene)methyl)-N-(2-(diethylamino)ethyl)-2-methyl-1H-pyrrole-3-carboxamide], the melting point fell in the range of 246 to 247 °C. Further, the IC50 in data set [1] came out at 0.32 ± 0.03 µM. Moreover, in the data set on oral epithelial (KB), the IC50 was determined as 1.15 ± 0.2 µM. The IC50 in the data set with melanoma (K111) is over 100 µM. Besides, the IC50 in data set [2] is over 100 µM. Besides, at VEGFR2 tyrosine kinase, the IC50 stood at 0.0112 ± 0.0026 µM.

In the case of `CCN(CC)CCNC(=O)c1c(Cl)[nH]c(/C=C2\C(=O)Nc3ccc(F)cc32)c1C` [Compound 14o, (Z)-2-Chloro-N-(2-(diethylamino)ethyl)-5-((5-fluoro-2-oxoindolin-3-ylidene)methyl)-4-methyl-1H-pyrrole-3-carboxamide], the melting point lay within 243.4 to 244 °C. In data set [1], the IC50 was found to be 2.14 ± 0.26 µM. The molecule also came in with an IC50 with oral epithelial (KB) of 1.51 ± 0.11 µM. The IC50 in the data set with melanoma (K111) is over 100 µM. Further, the IC50 in data set [2] is over 100 µM.

`CCc1c(/C=C2\C(=O)Nc3ccc(F)cc32)[nH]c(Cl)c1C(=O)NCCN(CC)CC` [Compound 14q, (Z)-2-Chloro-N-(2-(diethylamino)ethyl)-4-ethyl-5-((5-fluoro-2-oxoindolin-3-ylidene)methyl)-1H-pyrrole-3-carboxamide] yielded a melting point of 245.2 to 246.8 °C. Further, in data set [1], the half-inhibitory concentration (IC50) stood at 16.7 ± 2.7 µM. In the data set on oral epithelial (KB), this molecule had an IC50 of 34.4 ± 2.9 µM. For the same molecule, in the data set with melanoma (K111), the IC50 was over 100 µM. Besides, the IC50 in data set [2] is over 100 µM.

Molecule `CCNCCNC(=O)c1c(Cl)[nH]c(/C=C2\C(=O)Nc3ccc(F)cc32)c1C` [Compound 14p, (Z)-2-Chloro-N-(2-(ethylamino)ethyl)-5-((5-fluoro-2-oxoindolin-3-ylidene)methyl)-4-methyl-1H-pyrrole-3-carboxamide] had a melting point of 215 to 216.8 °C. In data set [1], the IC50 came to 1.41 ± 0.09 µM. Half-maximal inhibition in the data set with oral epithelial (KB) (IC50) was put at 0.69 ± 0.07 µM. In addition, the IC50 in the data set with melanoma (K111) was determined as 1.24 ± 0.16 µM. Further, in data set [2], the IC50 amounted to 1.66 ± 0.23 µM. Further, at VEGFR2 tyrosine kinase, the IC50 amounted to 0.006 ± 0.0012 µM.

As to `CCCNC(=O)c1c(C)[nH]c(/C=C2\C(=O)Nc3ccc(F)cc32)c1Cl` [Compound 14d, (Z)-4-Chloro-5-((5-fluoro-2-oxoindolin-3-ylidene)methyl)-2-methyl-N-propyl-1H-pyrrole-3-carboxamide], the melting point is over 290 °C. The IC50 in data set [1] was over 100 µM. In the data set on oral epithelial (KB), this molecule registered an IC50 of over 100 µM. Moreover, the IC50 with melanoma (K111) is over 100 µM. Moreover, the IC50 in data set [2] is over 100 µM.

With `CCN(CC)CCNC(=O)c1c(C)[nH]c(/C=C2\C(=O)Nc3ccccc32)c1Cl` [Compound 14k, (Z)-4-Chloro-N-(2-(diethylamino)ethyl)-2-methyl-5-((2-oxoindolin-3-ylidene)methyl)-1H-pyrrole-3-carboxamide], the melting point lay in the range of 238.5 to 240.1 °C. The IC50 in data set [1] is over 100 µM. Moreover, the IC50 in the data set with oral epithelial (KB) turned out to be 5.09 ± 1.01 µM. The IC50 in the data set with melanoma (K111) was over 100 µM. For the same molecule, the 50% inhibitory concentration (IC50) in data set [2] is over 100 µM.

In turn, `Cc1[nH]c(/C=C2\C(=O)Nc3ccc(F)cc32)c(Cl)c1C(=O)N1CCN(C)CC1` [Compound 14b, (Z)-3-((3-Chloro-5-methyl-4-(4-methylpiperazine-1-carbonyl)-1H-pyrrol-2-yl)methylene)-5-fluoroindolin-2-one] returned a melting point of 276.7 to 278.5 °C. In data set [1], the IC50 was over 100 µM. Moreover, in the data set on oral epithelial (KB), the IC50 is over 100 µM. Besides, the IC50 with melanoma (K111) was over 100 µM. Besides, the IC50 in data set [2] was over 100 µM.
